Source: ChEMBL document CHEMBL1128493, “Synthesis and sigma binding properties of 2'-substituted 5,9 alpha-dimethyl-6,7-benzomorphans” (J Med Chem, 1995)

Experiments:
[1] = Binding affinity measured on Sigma receptor type 1 from guinea pig brain membranes using [3H]pentazocine as radioligand.
[2] = Binding affinity at Sigma receptor type 2 on rat liver membranes receptor by [3H]DTG displacement.

CC1C2Cc3ccc(O)cc3C1(C)CCN2Cc1ccccc1 (single isomer, unassigned; (+))
Ki [1]: 0.67 nM | Ki [2]: 1710 nM
